Experimental findings from PubChem BioAssay (NCI) are described below.

Some test systems named below: U251 CNS; NCI-H522 lung; OVCAR-3 ovarian; CCRF-CEM leukemia; HL-60(TB) leukemia; HOP-62 NSCLC; IGROV1 ovarian; NCI-H23 lung; ACHN renal; RXF 393 renal.
Assay in all cases: inhibition of tumour cell growth, NCI panel, 48 h

The structures appear in SMILES notation.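 Five compound concentrations were applied to cells in 96-well plates for 48 hours; endpoints were derived by simple linear interpolation of the resulting dose-response curve. At the TGI there is no net growth.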 Bounds are passed on as bounds.

Regarding `O=C(CN1CCCCC1)Nc1ccc2c(c1)C1Oc3ccccc3CC1CO2` (stereo unspecified), the TGI in the experiment with U251 CNS is 33.3 µM; in the experiment on NCI-H522 lung, 36.3 µM; with OVCAR-3 ovarian, 64.9 µM; in the experiment on CCRF-CEM leukemia, over 100 µM; in the experiment with HL-60(TB) leukemia, over 100 µM; in the experiment with HOP-62 NSCLC, 34.1 µM. Besides, the TGI in the experiment on IGROV1 ovarian is 58 µM; with NCI-H23 lung it was over 100 µM.
In the case of `Cc1ccc(-c2cc[n+]3c(n2)oc2ccccc23)cc1`, the TGI with U251 CNS was over 100 µM; with NCI-H522 lung, 20 µM; in the experiment on OVCAR-3 ovarian, 40.9 µM; in the experiment on CCRF-CEM leukemia, 36.3 µM; in the experiment with HL-60(TB) leukemia, 44.2 µM; in the experiment on IGROV1 ovarian, over 100 µM. Also, the TGI was over 100 µM in the experiment with NCI-H23 lung and 99.4 µM in the experiment on ACHN renal.
Consider `Nc1ccc2ccc(N3CCNCC3)nc2n1`, for which the TGI with U251 CNS, in the experiment with NCI-H522 lung, in the experiment with OVCAR-3 ovarian, in the experiment on CCRF-CEM leukemia, in the experiment on HL-60(TB) leukemia and in the experiment on HOP-62 NSCLC was over 100 µM throughout. Further, the TGI with IGROV1 ovarian, in the experiment on NCI-H23 lung and in the experiment on ACHN renal was over 100 µM in each case.
Turning to `COc1cc(C2C3=C(CCCC3=O)N(c3ccc(C)cc3)C3=C2C(=O)CCC3)c([N+](=O)[O-])cc1OC`, the TGI with U251 CNS, with OVCAR-3 ovarian, in the experiment with CCRF-CEM leukemia, in the experiment with HL-60(TB) leukemia, in the experiment on IGROV1 ovarian and in the experiment with NCI-H23 lung was over 100 µM each time. The TGI in the experiment on RXF 393 renal and in the experiment on ACHN renal was over 100 µM in each case.
With `CN(C)CCOc1ccc(-c2c(Oc3ccccc3)c(=O)oc3ccccc23)cc1`, the TGI stood at 17.3 µM in the experiment with U251 CNS; 24.1 µM in the experiment on NCI-H522 lung; 26 µM in the experiment on OVCAR-3 ovarian; 4.94 µM with CCRF-CEM leukemia; 25.2 µM with IGROV1 ovarian; 28.6 µM with NCI-H23 lung. Moreover, the results for the TGI in the experiment with RXF 393 renal and in the experiment on ACHN renal were 17.6 µM and 24.4 µM, respectively.
On to `C=CC(=O)N1C/C(=C\c2ccc([N+](=O)[O-])cc2)C(=O)/C(=C/c2ccc([N+](=O)[O-])cc2)C1`, for which the TGI in the experiment on U251 CNS was 0.978 µM; in the experiment with OVCAR-3 ovarian, 1.08 µM; in the experiment with HL-60(TB) leukemia it was over 100 µM; with HOP-62 NSCLC, 0.375 µM; with IGROV1 ovarian, 0.419 µM; in the experiment with NCI-H23 lung, 0.791 µM. For the same compound, the TGI in the experiment on RXF 393 renal was 0.359 µM; with ACHN renal, 0.33 µM.
With `CC(=O)O[C@H]1C[C@@H](OC(C)=O)[C@@](C)(O)[C@@H]2[C@@H](OC(C)=O)[C@@]3(O)[C@H](/C=C(/CO)[C@H]4O[C@H]4[C@@H](OC(C)=O)[C@@]12C)OC(=O)[C@@H]3C`, the TGI in the experiment with U251 CNS is 21.4 µM; in the experiment with NCI-H522 lung, 15.6 µM; with OVCAR-3 ovarian it was 15.5 µM; with CCRF-CEM leukemia, over 25 µM; in the experiment on HOP-62 NSCLC it was over 25 µM; with IGROV1 ovarian it was over 25 µM. Also, the TGI was over 25 µM in the experiment with NCI-H23 lung, 10.7 µM in the experiment with RXF 393 renal and over 25 µM with ACHN renal.
For `COC(=O)CNC(=O)CCC(C)[C@H]1CCC2C3C(C[C@H](OC(C)=O)[C@@]21C)[C@@]1(C)CCC2(C[C@H]1C[C@H]3OC(C)=O)OOC1(CC[C@]3(C)C4C[C@H](OC(C)=O)[C@@]5(C)C(CC[C@@H]5C(C)CCC(=O)NCC(=O)OC)C4[C@H](OC(C)=O)C[C@@H]3C1)OO2` (stereo partly specified), the TGI was 14 µM with U251 CNS; 3.19 µM in the experiment on NCI-H522 lung; 15.9 µM with OVCAR-3 ovarian; 1.57 µM in the experiment with CCRF-CEM leukemia; 2.37 µM with HL-60(TB) leukemia; 1.52 µM in the experiment with HOP-62 NSCLC. Further, the results for the TGI in the experiment on IGROV1 ovarian, in the experiment on NCI-H23 lung and in the experiment with ACHN renal were 1.91 µM, 3.66 µM and 1.57 µM, respectively.
Regarding `COC(=O)C1CCC(=O)N1C(c1cc(OC)c(OC)c(OC)c1)c1cccc2ccccc12` (stereo unspecified), the TGI in the experiment on U251 CNS, with NCI-H522 lung, in the experiment on OVCAR-3 ovarian, in the experiment with HL-60(TB) leukemia, in the experiment with HOP-62 NSCLC and with IGROV1 ovarian was over 100 µM each time. Also, in the experiment on ACHN renal, the TGI is over 100 µM.
As for `N#Cc1cc(Sc2ccc(N)c(C#N)c2)ccc1N`, the TGI in the experiment with U251 CNS is over 100 µM; in the experiment with OVCAR-3 ovarian, over 100 µM; with CCRF-CEM leukemia, 41.3 µM; in the experiment with HL-60(TB) leukemia, 6.49 µM; in the experiment on HOP-62 NSCLC, over 100 µM; with IGROV1 ovarian it was over 100 µM. Moreover, the TGI with RXF 393 renal and with ACHN renal was over 100 µM in each case.
As for `O=C1CSC(c2ccc([N+](=O)[O-])cc2)N1c1ccc(-c2ccc(-n3c(-c4ccccc4)nc4ccccc4c3=O)cc2)cc1` (stereo unspecified), the TGI in the experiment with U251 CNS, with NCI-H522 lung, with OVCAR-3 ovarian, in the experiment on CCRF-CEM leukemia, in the experiment on HL-60(TB) leukemia and with HOP-62 NSCLC was over 100 µM throughout. Moreover, the TGI in the experiment with NCI-H23 lung and in the experiment with ACHN renal was over 100 µM each time.
As to `CCN(CC)CC1CN=C(N)O1` (stereo unspecified), the TGI with U251 CNS, in the experiment on OVCAR-3 ovarian, in the experiment with CCRF-CEM leukemia, in the experiment with HOP-62 NSCLC, in the experiment with IGROV1 ovarian and in the experiment on NCI-H23 lung was over 100 µM in each case. The TGI in the experiment with RXF 393 renal and with ACHN renal was over 100 µM throughout.
Turning to `COC(=O)C1=C(O)CCCC(C2CCCCC(=O)C2C(=O)OC)=C1` (stereo unspecified), the TGI with U251 CNS was over 100 µM; in the experiment with OVCAR-3 ovarian it was over 100 µM; in the experiment with CCRF-CEM leukemia, 89.3 µM; in the experiment with IGROV1 ovarian, over 100 µM; with NCI-H23 lung, over 100 µM; with RXF 393 renal, over 100 µM. The TGI with ACHN renal is over 100 µM.
As to `O=c1[nH]nc(Nc2ccccc2)c2nnn(C3CCCCC3)c12`, the TGI with U251 CNS, in the experiment with OVCAR-3 ovarian, with CCRF-CEM leukemia, in the experiment on HL-60(TB) leukemia, with HOP-62 NSCLC and with NCI-H23 lung was over 100 µM in each case. The TGI in the experiment on ACHN renal was over 100 µM.
Turning to `COC(=O)C1=C(C(=O)OC)C(N(C)C)C(C(=O)OC)=C(C(=O)OC)S1`, the TGI in the experiment with U251 CNS, in the experiment with OVCAR-3 ovarian, in the experiment with HOP-62 NSCLC, in the experiment with NCI-H23 lung, in the experiment on RXF 393 renal and in the experiment on ACHN renal was over 100 µM each time.
Take `O=C(Nc1ccccc1Cl)c1ccc([N+](=O)[O-])cc1`: the TGI in the experiment on U251 CNS, with NCI-H522 lung, in the experiment on OVCAR-3 ovarian, in the experiment on CCRF-CEM leukemia, in the experiment with HOP-62 NSCLC and with IGROV1 ovarian was over 100 µM in each case. Also, the TGI in the experiment on NCI-H23 lung and with RXF 393 renal was over 100 µM each time.
